This is an account of results in patent US20250302848A1, “DRUG-IN-CAPSULE FORMULATIONS OF THROMBOXANE RECEPTOR ANTAGONISTS” (ATXA Therapeutics, Ltd, priority 2024, published 2025).

As usually defined, the IC50 is the concentration that inhibits the measured activity by half.

The subject of this test is human platelets. As to the kind of experiment: inhibition of aggregation of human platelets ex vivo. In kind it is cell-based. Conditions: Platelet, read-out: IC50, inhibit aggregation of human platelets ex vivo.

As for `CC(C)(C)NC(=O)NS(=O)(=O)c1cc(C#N)ccc1Oc1cccc(-c2ccc(OC(F)(F)F)cc2)c1` [NTP43], the IC50 is 1 to 10 nM.

On to `COc1ccc(-c2cccc(Oc3ccc([N+](=O)[O-])cc3S(=O)(=O)NC(=O)NC(C)(C)C)c2)cc1` [TP20], for which the IC50 is 1 to 10 nM.
